Data: patent US20060115538A1, “Calcium lactate and whey permeate for lowering the triglyceride level” (priority 2002, published 2006)

Experiments:
Format in all cases: in vivo
WOK.W rat [1] = experiment: Feeding trial in male WOK.W rats: plasma glucose; conditions: 16 weeks old, after 12 weeks supplementation via drinking water, mean ± SEM, pathological threshold >8.4 mmol/l
Source text: (§1) Both pharmacological and nutrition-induced intervention trials on patients with an increased triglyceride level are above all time consuming, in order to detect changes of the metabolism, and require a high degree of discipline and motivation of the test persons or patients taking part in the studies. In part, these disadvantages can be lessened or eliminated by animal experiments, under the precondition that equivalent animal models are available. […] The specific properties of WOK.W rats are described, e.g., in: • P. Kovacs et al., Ann. N.Y. Acad. Sci., 1997, 827, 94-99; • P. Kovacs et al., Biochem. Biophsy. Res. Commun., 2000, 660-665; • J. van den Brandt et al., Int. J. Obesity, 2000, 24, 1618-1622; • J. van den Brandt et al., Metabolism 49, 2000, 1140-1144. […]
(§2) Body weight, body length (for the calculation of the mody mass index, BMI), plasma glucose, and serum triglycerides were recorded every 2 weeks. […]
(§3) Plasma glucose was measured enzymatically using a glucose analyzer. Lipid metabolism parameters were determined enzymatically with an automated analyzer for clinical chemistry, with kits (Boehringer Mannheim: triglycerides with TG GPO-PAP), according to the supplied instruction manuals. […]
(§4) The results are represented as mean values ±SEM and the statistical significance was calculated using Student's t-test.

WOK.W rat [2] = experiment: Feeding trial in male WOK.W rats: serum triglycerides; conditions: 16 weeks old, after 12 weeks supplementation via drinking water, mean ± SEM, pathological threshold >2.3 mmol/l, a: P < 0.01
Source text: as §1, §2, §3, §4

WOK.W rat [3] = experiment: Feeding trial in male WOK.W rats: body mass, BMI, pararenal adipose tissue; conditions: 16 weeks old, after 12 weeks supplementation via drinking water, mean ± SEM
Source text: Both pharmacological and nutrition-induced intervention trials on patients with an increased triglyceride level are above all time consuming, in order to detect changes of the metabolism, and require a high degree of discipline and motivation of the test persons or patients taking part in the studies. In part, these disadvantages can be lessened or eliminated by animal experiments, under the precondition that equivalent animal models are available. […] The specific properties of WOK.W rats are described, e.g., in: • P. Kovacs et al., Ann. N.Y. Acad. Sci., 1997, 827, 94-99; • P. Kovacs et al., Biochem. Biophsy. Res. Commun., 2000, 660-665; • J. van den Brandt et al., Int. J. Obesity, 2000, 24, 1618-1622; • J. van den Brandt et al., Metabolism 49, 2000, 1140-1144.
31 male WOK.W rats (from 8 litters) were divided, at an age of 4 weeks, into 4 groups, such that one sibling was represented in each group. Group 1 (n=8 animals) was fed and watered ad libitum and served as an untreated control group. Group 2 (n=7 animals) received drinking water to which had been added whey permeate (25 g sweet whey permeate/1000 ml drinking water), a daily water requirement of 20 ml on average being assumed as the basis of the calculation. Group 3 (n=8 animals) received drinking water to which had been added calcium L-lactate (5,6 g calcium L-lactate/1000 ml drinking water), and group 4 (n=8 animals) received whey permeate and calcium L-lactate in identical concentrations. The treatment trial began at an age of 4 weeks, i.e. before the development of the most important symptoms of the metabolic syndrome, and continued for 12 weeks, until an age of 16 weeks.
as §2, §4

C[C@H](O)C(=O)[O-].C[C@H](O)C(=O)[O-].[Ca+2] [Calcium lactate, calcium L-lactate]
Blood sugar (WOK.W rat [1]): 6.10 ± 0.21 mmol/L
Triglyceride (WOK.W rat [2]): 3.88 ± 0.22 mmol/L
BMI (WOK.W rat [3]): 0.77 ± 0.01 g/cm^2
Body mass (WOK.W rat [3]): 394.3 ± 10.6 G
Adipose tissue (WOK.W rat [3]; pararenal adipose tissue): 10.01 ± 0.71 G
